According to ChEMBL document CHEMBL5252605, “Design, synthesis, and biological testing of biphenylmethyloxazole inhibitors targeting HIV-1 reverse transcriptase” (Bioorg Med Chem Lett, 2023):
Calls of active or inactive are those of the source. The calls are words filed in the database; no cut-off is given here.

Columns and labels:
[1] = biological target: Human immunodeficiency virus type 1 reverse transcriptase (Human immunodeficiency virus 1, UniProt Q72547); experiment: Inhibition of recombinant wildtype HIV-1 reverse transcriptase using r(A)350 as template and d(T)16 as primer preincubated with compound for 1 hrs followed by template/primer addition and measured after 30 mins by picogreen based plate reader analysis
[2] = tested on: Human immunodeficiency virus 1; experiment: Antiviral activity against wildtype HIV-1 IIIb infected in human MT2 cells assessed as protection of viral infected cells; type: functional, organism-based; settings: for EC50: Human immunodeficiency virus 1, IIIB
[3] = biological target: Human immunodeficiency virus type 1 reverse transcriptase (Human immunodeficiency virus 1) (UniProt Q72547); experiment: Time dependent inhibition of recombinant wildtype HIV-1 reverse transcriptase at 0.1 to 1000000 nM; settings: dose 0.1-1e+06 nM, time 1-48 hrs
MT2 = experiment: Cytotoxicity against human MT2 cells assessed as inhibition of cell growth; type: toxicity, cell-based

Row | SMILES | IC50 [1] | EC50 [2] | TDI [3] | CC50 (MT2) | Activity [2]
1 | N#Cc1ccc(Nc2ncc(Cc3c(F)cc(-c4ccc(C5CO5)cc4)cc3F)o2)cc1Cl (configuration not stated) | 0.44 µM | 0.61 µM | inactive | 25 µM | 
2 | N#Cc1ccc(Nc2ncc(Cc3c(F)cc(-c4ccc(O)cc4)cc3F)o2)cc1 | > 1 µM | 5.5 µM |  | 15 µM | 
3 | N#Cc1ccc(Nc2ncc(Cc3c(F)cccc3F)o2)cc1Cl |  | 0.0062 µM |  |  | 
4 | N#Cc1ccc(Nc2ncc(Cc3c(F)cc(-c4ccc(O)cc4)cc3F)o2)cc1Cl | 0.28 µM | 1.3 µM |  | 15 µM | 
5 | N#Cc1ccc(Nc2ncc(Cc3ccc(-c4ccccc4)cc3)o2)cc1 | > 100 µM |  |  | 80 µM | inactive
6 | C=Cc1ccc(-c2cc(F)c(Cc3cnc(Nc4ccc(C#N)c(Cl)c4)o3)c(F)c2)cc1 | 0.017 µM | 0.019 µM |  | 30 µM | 
7 | N#Cc1ccc(Nc2ncc(Cc3c(F)cc(-c4ccc(OS(=O)(=O)F)cc4)cc3F)o2)cc1Cl | 3 µM | 4.3 µM | inactive | 25 µM | 
8 | N#Cc1ccc(Nc2ncc(Cc3c(F)cc(-c4ccccc4)cc3F)o2)cc1 | 0.02 µM | 0.17 µM |  | 59 µM | 
9 | N#Cc1ccc(Nc2ncc(Cc3c(F)cc(-c4ccc(OS(=O)(=O)F)cc4)cc3F)o2)cc1 | > 20 µM |  | inactive | 30 µM | inactive
10 | N#Cc1ccc(Nc2ncc(Cc3c(F)cc(-c4ccc(C#N)cc4)cc3F)o2)cc1 | 0.011 µM | 0.03 µM |  | 9 µM | 
11 | COc1ccc(-c2ccc(Cc3cnc(Nc4ccc(C#N)cc4)o3)cc2)cc1 | > 10 µM |  |  | 27 µM | inactive
12 | N#Cc1ccc(-c2cc(F)c(Cc3cnc(Nc4ccc(C#N)c(Cl)c4)o3)c(F)c2)cc1 | < 0.01 µM | 0.016 µM |  | 9.5 µM | 
